The text below walks through data of PubChem BioAssay (NCI).

Holding throughout (assay): DTP human tumour cell line panel, 48 h
Test [1] relates to A498 renal.
Test [2] has as its system BT-549 breast.
Test [3] has as its system COLO 205 colon.
The test system of test [4] is MDA-MB-231 breast.
Test [5] relates to MOLT-4 leukemia.
Test [6] has as its system RXF 393 renal.
Test [7] concerns SF-295 CNS.
For test [8], the system named is SK-MEL-5 melanoma.
Test [9] deals with SNB-19 CNS.
In test [10] the test system is SR leukemia.

SMILES strings stand for the structures.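 Following 48 hours of exposure in 96-well plates, responses at five concentrations were used to interpolate endpoints linearly. GI50 = concentration required for 50% inhibition of growth. TGI: total growth inhibition.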

As to `c1ccc(-c2n(Cc3ccc4ccccc4n3)cc[n+]2Cc2ccc3ccccc3c2)cc1`, the GI50 (commonly the concentration giving 50% growth inhibition) in [1] is 1160 nM; in [2], 1630 nM; in test [3] it was 752 nM; in test [4] it was 1160 nM; in test [5], 1640 nM; in test [6] it was 1340 nM. The GI50 in test [7] was 1730 nM; in test [8], 538 nM; in [9], 865 nM; in [10], 573 nM. In addition, the TGI (in general, the concentration giving total growth inhibition) in test [1] amounted to 4790 nM; in test [2] it was 3700 nM; in test [3], 2260 nM; in test [4] it was 3320 nM; in [5], 4380 nM; in test [6], 3380 nM. Moreover, the TGI turned out to be 4730 nM in test [7], 1550 nM in test [8], 3540 nM in test [9] and 3110 nM in test [10].

Regarding `CCNC(=O)C#Cc1ccc2c(C(=Nc3ccc(CN(C)C)cc3)c3ccccc3)c(O)[nH]c2c1`, the GI50 is 27.4 nM in test [1]; 1510 nM in [2]; 3.63 nM in test [3]; 29.5 nM in test [4]; 199 nM in test [5]; 123 nM in test [6]. For the same compound, the GI50 in [7] is 249 nM; in test [8], 307 nM; in [9], 206 nM; in [10] it was 7.78 nM. The TGI is 179 nM in [1]; greater than 10000 nM in [2]; 71.1 nM in test [3]; 502 nM in [4]; 2760 nM in test [5]; 703 nM in test [6]. Further, the TGI was 3310 nM in [7], 1840 nM in [8], greater than 5900 nM in [9] and 2930 nM in test [10].

`CCOC(=O)n1cc(C2=C(c3ccc(OC)c(OC)c3)COC2=O)c2ccccc21`: the GI50 in [1] was 22.6 nM; in [2], 105 nM; in test [3], 52.2 nM; in test [4] it was 160 nM; in test [5], 58.1 nM; in test [6] it was 25.2 nM. The 50% growth inhibitory concentration (GI50) in test [7] is 38.8 nM; in [8], 41 nM; in test [9], 55.1 nM; in [10] it was 29.7 nM. Also, the TGI in test [1] is 139 nM; in test [2], 22600 nM; in [3] it was 940 nM; in test [4] it was greater than 100000 nM; in [5], greater than 100000 nM; in test [6], greater than 100000 nM. The TGI in test [7] was greater than 100000 nM; in test [8] it was 480 nM; in test [9], greater than 100000 nM; in test [10] it was greater than 100000 nM.

With `COc1ccc2ncnc(Nc3ccc(OCc4ccccc4)cc3)c2c1`, the GI50 in [1] is 2140 nM; in [2], 7910 nM; in test [3], 7960 nM; in test [4], 4600 nM; in test [5], 7560 nM; in [6], 4590 nM. The GI50 is 5150 nM in test [7], 4620 nM in test [8], 9780 nM in test [9] and 11600 nM in test [10]. The total growth inhibition concentration (TGI) in test [1] is 14100 nM; in [2], greater than 25000 nM; in test [3] it was greater than 25000 nM; in test [4], 11100 nM; in test [5], greater than 23500 nM; in test [6], 10200 nM. The total growth inhibition concentration (TGI) in test [7] is greater than 18700 nM; in test [8] it was 11800 nM; in test [9] it was greater than 25000 nM; in [10], greater than 25000 nM.

For `CC(=C(c1ccc(OCCN2CCCCC2)cc1)c1ccc(OCCN2CCCCC2)cc1)c1ccc(Cl)cc1`, the GI50 in test [1] was 386 nM; in test [2], 414 nM; in [3], 460 nM; in [4], 425 nM; in test [5], 449 nM; in test [6], 375 nM. The GI50 in [7] is 449 nM; in test [8], 443 nM; in test [9] it was 438 nM; in test [10] it was 195 nM. The TGI in [1] stood at 755 nM; in test [2], 787 nM; in test [3] it was 921 nM; in test [4], 806 nM; in [5], 982 nM; in test [6], 743 nM. Further, the TGI in [7] turned out to be 868 nM; in [8], 793 nM; in test [9], 810 nM; in test [10] it was 707 nM.

For `CCCCCCCCCCSC(=N)N` (tested in a mixture with another compound), the GI50 in [1] was 6550 nM; in test [2], 6650 nM; in test [3] it was 1860 nM; in test [4] it was 1800 nM; in [5], 1850 nM; in test [6] it was 2550 nM. For the same compound, the GI50 in test [7] is 3790 nM; in test [8], 2830 nM; in test [9], 4280 nM; in test [10] it was 2340 nM. Further, the TGI stood at 19700 nM in test [1]; 25900 nM in [2]; 3780 nM in test [3]; 4220 nM in test [4]; 5510 nM in test [5]; 7230 nM in test [6]. Moreover, the TGI is 14300 nM in test [7], 8550 nM in [8], 18200 nM in [9] and 6900 nM in test [10].

For `Cc1ccc(-c2nc(N3CCNCC3)c3oc(-c4ccc(C)cc4)nc3n2)cc1`, the GI50 in test [1] was 15800 nM; in test [2] it was 5390 nM; in test [3], 1980 nM; in [4], 1770 nM; in test [5], 2200 nM; in [6], 3890 nM. Also, the GI50 in [7] is 12100 nM; in test [8] it was greater than 39200 nM; in test [9], 2600 nM; in test [10], 371 nM. For the same compound, the TGI was determined as 32000 nM in test [1]; 11200 nM in test [2]; 4110 nM in test [3]; 3450 nM in [4]; 4690 nM in test [5]; 8810 nM in [6]. Further, the TGI in [7] was 52600 nM; in test [8] it was greater than 53900 nM; in test [9], 7020 nM; in [10], 1850 nM.

Consider `OC(c1cc(C(F)(F)F)nc2c(C(F)(F)F)cccc12)C1CCCCN1` (stereo not given), for which the GI50 is 1810 nM in test [1]; 3240 nM in test [2]; 1830 nM in test [3]; 1780 nM in test [4]; 2770 nM in test [5]; 1710 nM in [6]. For the same compound, the GI50 is 2040 nM in test [7], 1680 nM in [8], 2750 nM in [9] and 3590 nM in [10]. For the same compound, the TGI in test [1] amounted to 7830 nM; in test [2] it was 8670 nM; in [3] it was 3300 nM; in test [4], 3450 nM; in [5], 6530 nM; in [6], 4530 nM. In addition, the TGI in [7] worked out at 5090 nM; in test [8], 3070 nM; in test [9], 8220 nM; in test [10] it was 8270 nM.
